Experimental data: ChEMBL document CHEMBL1127987, “()11-Amino-2,6-dimethyl-1,2,3,4-tetrahydro-6H-quinindolin-1-one, a novel gabaA modulator with potential anxiolytic activity” (Bioorg Med Chem Lett, 1994)

Experiments:
[1] = system: Rattus norvegicus; assay: Punished responding phase in Geller-Seifter test was determined at 1 hr post-dose of 5 mg/Kg p.o.; format: functional
[2] = system: Rattus norvegicus; assay: Punished responding phase in Geller-Seifter test was determined at 2 hr post-dose of 5 mg/Kg p.o.; format: functional
[3] = species: Rattus norvegicus; assay: Minimum effective peroral dose in Geller-Seifter paradigm; format: functional; settings: po, read-out: MED
[4] = system: Rattus norvegicus; assay: Number of animals responding out of those tested (Nr/N) in Geller-Seifter test was determined at 2 hr post-dose of 5 mg/Kg p.o. (Animals tested 16); format: functional
[5] = system: Rattus norvegicus; assay: Number of animals responding out of those tested (Nr/N) in Geller-Seifter test was determined at 1 hr post-dose of 5 mg/Kg p.o. (Animals tested 8); format: functional
[6] = biological target: T1, GABA-A receptor; anion channel (Rattus norvegicus) (UniProt O09028+P15431+P18506+P18508+P19969+P20236+P23574+P23576+P28471+P28473+P30191+P62813+P63079+P63138+Q91ZM7+Q9ES14); settings: Cerebral cortex, 0.12 uM
Description: Inhibition of [3H]Flunitrazepam binding to rat cerebral cortex at 0.12 uM

[7] = biological target: T1, GABA-A receptor; anion channel (Rattus norvegicus); settings: 0.01 uM
Description: Inhibition of [35S]TBPS binding to Gamma-aminobutyric acid A (GABA-A) receptor of rat brain in the presence of 5 uM GABA at 0.01 uM

[8] = system: GABA-A receptor; anion channel; assay: Displacement of [3H]flunitrazepam from rat cerebral cortex (Insoluble); format: tissue-based
[9] = system: GABA-A receptor; anion channel; assay: Inhibition of [35S]TBPS binding to Gamma-aminobutyric acid A (GABA-A) receptor of rat brain in the presence of 5 uM GABA
[10] = biological target: GABA-A receptor; anion channel; assay: Displacement of [3H]flunitrazepam from rat cerebral cortex; format: tissue-based
[11] = system: Rattus norvegicus; assay: Punished responding phase in Geller-Seifter test was determined at 1 hr post-dose of 10 mg/Kg p.o.; format: functional
[12] = system: Rattus norvegicus; assay: Punished responding phase in Geller-Seifter test was determined at 1 hr post-dose of 100 mg/Kg p.o.; format: functional
[13] = system: Rattus norvegicus; assay: Punished responding phase in Geller-Seifter test was determined at 1 hr post-dose of 20 mg/Kg p.o.; format: functional
[14] = system: Rattus norvegicus; assay: Punished responding phase in Geller-Seifter test was determined at 1 hr post-dose of 50 mg/Kg p.o.; format: functional
[15] = system: Rattus norvegicus; assay: Punished responding phase in Geller-Seifter test was determined at 2 hr post-dose of 20 mg/Kg p.o.; format: functional
[16] = system: Rattus norvegicus; assay: Punished responding phase in Geller-Seifter test was determined at 2 hr post-dose of 50 mg/Kg p.o.; format: functional
[17] = system: Rattus norvegicus; assay: Number of animals responding out of those tested (Nr/N) in Geller-Seifter test was determined at 1 hr post-dose of 10 mg/Kg p.o. (Animals tested 15); format: functional
[18] = system: Rattus norvegicus; assay: Number of animals responding out of those tested (Nr/N) in Geller-Seifter test was determined at 1 hr post-dose of 100 mg/Kg p.o. (Animals tested 16); format: functional
[19] = system: Rattus norvegicus; assay: Number of animals responding out of those tested (Nr/N) in Geller-Seifter test was determined at 1 hr post-dose of 20 mg/Kg p.o. (Animals tested 16); format: functional
[20] = system: Rattus norvegicus; assay: Number of animals responding out of those tested (Nr/N) in Geller-Seifter test was determined at 2 hr post-dose of 50 mg/Kg p.o. (Animals tested 16); format: functional
[21] = system: Rattus norvegicus; assay: Number of animals responding out of those tested (Nr/N) in Geller-Seifter test was determined at 1 hr post-dose of 5 mg/Kg p.o. (Animals tested 6); format: functional
[22] = system: Rattus norvegicus; assay: Number of animals responding out of those tested (Nr/N) in Geller-Seifter test was determined at 1 hr post-dose of 50 mg/Kg p.o. (Animals tested 16); format: functional
[23] = system: Rattus norvegicus; assay: Number of animals responding out of those tested (Nr/N) in Geller-Seifter test was determined at 2 hr post-dose of 20 mg/Kg p.o. (Animals tested 16); format: functional
[24] = system: Rattus norvegicus; assay: Punished responding phase in Geller-Seifter test was determined at 1 hr post-dose of 2.5 mg/Kg p.o.; format: functional
[25] = system: Rattus norvegicus; assay: Punished responding phase in Geller-Seifter test was determined at 2 hr post-dose of 10 mg/Kg p.o.; format: functional
[26] = system: Rattus norvegicus; assay: Punished responding phase in Geller-Seifter test was determined at 2 hr post-dose of 100 mg/Kg p.o.; format: functional
[27] = system: Rattus norvegicus; assay: Number of animals responding out of those tested (Nr/N) in Geller-Seifter test was determined at 1 hr post-dose of 10 mg/Kg p.o. (Animals tested 6); format: functional
[28] = system: Rattus norvegicus; assay: Number of animals responding out of those tested (Nr/N) in Geller-Seifter test was determined at 1 hr post-dose of 100 mg/Kg p.o. (Animals tested 6); format: functional
[29] = system: Rattus norvegicus; assay: Number of animals responding out of those tested (Nr/N) in Geller-Seifter test was determined at 1 hr post-dose of 2.5 mg/Kg p.o. (Animals tested 6); format: functional
[30] = system: Rattus norvegicus; assay: Number of animals responding out of those tested (Nr/N) in Geller-Seifter test was determined at 2 hr post-dose of 20 mg/Kg p.o. (Animals tested 6); format: functional
[31] = system: Rattus norvegicus; assay: Number of animals responding out of those tested (Nr/N) in Geller-Seifter test was determined at 2 hr post-dose of 50 mg/Kg p.o. (Animals tested 6); format: functional
[32] = system: Rattus norvegicus; assay: Number of animals responding out of those tested (Nr/N) in Geller-Seifter test was determined at 1 hr post-dose of 20 mg/Kg p.o. (Animals tested 6); format: functional
[33] = system: Rattus norvegicus; assay: Number of animals responding out of those tested (Nr/N) in Geller-Seifter test was determined at 1 hr post-dose of 5 mg/Kg p.o. (Animals tested 14); format: functional
[34] = system: Rattus norvegicus; assay: Number of animals responding out of those tested (Nr/N) in Geller-Seifter test was determined at 1 hr post-dose of 50 mg/Kg p.o. (Animals tested 6); format: functional
[35] = system: Rattus norvegicus; assay: Number of animals responding out of those tested (Nr/N) in Geller-Seifter test was determined at 2 hr post-dose of 10 mg/Kg p.o. (Animals tested 14); format: functional
[36] = system: Rattus norvegicus; assay: Number of animals responding out of those tested (Nr/N) in Geller-Seifter test was determined at 2 hr post-dose of 100 mg/Kg p.o. (Animals tested 6); format: functional
[37] = system: Rattus norvegicus; assay: Number of animals responding out of those tested (Nr/N) in Geller-Seifter test was determined at 2 hr post-dose of 20 mg/Kg p.o. (Animals tested 8); format: functional

CN1C(=O)CN=C(c2ccccc2)c2cc(Cl)ccc21 [DIAZEPAM]
Change [1]: 57%
Change [2]: 38%
minimal effective dose [3]: 2.5 mg/kg
Nr/N [4]: 8
Nr/N [5]: 6
inhibition [6]: 100%
inhibition [7]: < 50%

Cn1c2ccccc2c2c(N)c3c(nc21)CCOC3=O
IC50 [8]: Insoluble
IC50 [9]: Insoluble
minimal effective dose [3]: > 20 mg/kg

CCOC(=O)c1c(C)nc2c(c1N)c1ccccc1n2C
IC50 [10]: > 100000 nM
IC50 ([9]; read-out: IC50): 2000 nM
Change [11]: 20%
Change [12]: 122%
Change [13]: 22%
Change [1]: 2%
Change [14]: 63%
Change [15]: 6%
Change [16]: 4%
minimal effective dose [3]: 10 mg/kg
Nr/N [17]: 10
Nr/N [18]: 14
Nr/N [19]: 12
Nr/N [20]: 6
Nr/N [21]: 5
Nr/N [22]: 15
Nr/N [23]: 6

CC1CCc2nc3c(c(N)c2C1=O)c1ccccc1n3C (centres undefined)
IC50 [10]: > 100000 nM
IC50 ([9]; read-out: IC50): 950 nM
Change [11]: 43%
Change [12]: 137%
Change [24]: 0%
Change [13]: 52%
Change [1]: 19%
Change [14]: 146%
Change [25]: 22%
Change [26]: 141%
Change [15]: 36%
Change [16]: 62%
minimal effective dose [3]: 5 mg/kg
Nr/N [27]: 5
Nr/N [28]: 6
Nr/N [29]: 0
Nr/N [30]: 6
Nr/N [31]: 6
Nr/N [32]: 5
Nr/N [33]: 8
Nr/N [34]: 5
Nr/N [35]: 7
Nr/N [36]: 6

Cc1nc2c(c(N)c1C(=O)O)c1ccccc1n2C
IC50 [10]: > 100000 nM
IC50 ([9]; read-out: IC50): > 100000 nM
minimal effective dose [3]: > 50 mg/kg

CCC1CCc2nc3c(c(N)c2C1=O)c1ccccc1n3C (centres undefined)
IC50 ([9]; read-out: IC50): 940 nM
minimal effective dose [3]: 20 mg/kg

CCC(=O)c1c(C)nc2c(c1N)c1ccccc1n2C
IC50 [10]: > 100000 nM
IC50 ([9]; read-out: IC50): 1600 nM
Change [13]: 41%
Change [15]: 28%
minimal effective dose [3]: 20 mg/kg
Nr/N [37]: 5
Nr/N [32]: 5

CCCC(=O)c1c(C)nc2c(c1N)c1ccccc1n2C
IC50 ([9]; read-out: IC50): 2300 nM
minimal effective dose [3]: 20 mg/kg
